Experimental findings from patent US20220324865A1 (Bayer Aktiengesellschaft, priority 2018, published 2022) are described below.

The target of the assay is T1, human EP3 receptor (Homo sapiens, UniProt P43115).
T1 construct: expressed in transfected cells; host or cells: CHO K1 (Chinese Hamster Ovary), stably co-transfected with Galpha16 and mitochondrial clytin
T1 sequence (P43115 1-390): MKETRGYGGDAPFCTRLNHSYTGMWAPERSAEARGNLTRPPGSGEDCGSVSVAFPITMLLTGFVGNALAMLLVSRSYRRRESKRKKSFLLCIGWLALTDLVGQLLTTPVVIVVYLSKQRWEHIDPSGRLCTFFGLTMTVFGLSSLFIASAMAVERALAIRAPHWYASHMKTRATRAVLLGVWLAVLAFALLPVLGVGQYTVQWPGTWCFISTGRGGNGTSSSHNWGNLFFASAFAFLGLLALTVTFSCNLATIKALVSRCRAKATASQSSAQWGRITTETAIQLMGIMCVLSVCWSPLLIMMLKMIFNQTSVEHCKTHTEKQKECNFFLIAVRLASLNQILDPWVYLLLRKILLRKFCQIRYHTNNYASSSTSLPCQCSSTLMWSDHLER
Kind of assay: Cellular in vitro assay for determining EP3 receptor activity (human EP3 cell line, sulprostone-stimulated calcium luminescence). The format is cell-based. Particulars: CHO cells expressing human EP3 and mitochondrial Clytin; antagonist mode, sulprostone at EC50; read-out: EP3 CHO mtCLY ANTAG IC50. The gist of the method:
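Antagonist activity was measured as inhibition of the luminescent calcium signal elicited by EC50 sulprostone, following 10 min compound pretreatment. The cell line was recombinant CHO K1 co-expressing human EP3, Gα16 and the photoprotein Clytin, reconstituted with coelenterazine.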
On to `N#Cc1c(C(=O)N[C@@H]2CCCc3ccccc32)nn2cc(-c3ccc4ccccc4c3)[nH]c(=O)c12` [Example 3-48, 3-Cyano-6-(naphthalen-2-yl)-4-oxo-N-[(7R)-1,2,3,4-tetrahydronaphthalen-1-yl]-4,5-dihydropyrazolo[1,5-a]pyrazine-2-carboxamide], for which the concentration for half-maximal inhibition (IC50) came to 5.5 nM.
To `N#Cc1c(C(=O)NC2(c3ccccc3)CC2)nn2cc(-c3ccc4ccccc4c3)[nH]c(=O)c12` [Example 3-49, 3-Cyano-6-(naphthalen-2-yl)-4-oxo-N-(1-phenylcyclopropyl)-4,5-dihydropyrazolo[1,5-a]pyrazine-2-carboxamide] belongs 1.35 nM.
As for `COc1ccc(C(C)NC(=O)c2nn3cc(-c4ccc5ccccc5c4)[nH]c(=O)c3c2C#N)cn1` (stereo not shown) [Example 3-50, 3-Cyano-N-[1-(6-methoxy-3-pyridyl)ethyl]-6-(2-naphthyl)-4-oxo-5H-pyrazolo[1,5-a]pyrazine-2-carboxamide], the half-inhibitory concentration (IC50) turned out to be 1.75 nM.
Regarding `COc1ccc(C(C)NC(=O)c2nn3cc(-c4ccc5ccccc5c4)[nH]c(=O)c3c2C#N)cc1` (stereo not shown) [Example 3-51, 3-Cyano-N-[1-(4-methoxyphenyl)ethyl]-6-(2-naphthyl)-4-oxo-5H-pyrazolo[1,5-a]pyrazine-2-carboxamide], the 50% inhibitory concentration (IC50) is 1.85 nM.
In the case of `CC(NC(=O)c1nn2cc(-c3ccc4ccccc4c3)[nH]c(=O)c2c1C#N)c1ccc(F)cc1` (stereo not shown) [Example 3-52, 3-Cyano-N-[1-(4-fluorophenyl)ethyl]-6-(2-naphthyl)-4-oxo-5H-pyrazolo[1,5-a]pyrazine-2-carboxamide], the IC50 is 2.25 nM.
In the case of `Cc1ccc([C@@H](C)NC(=O)c2nn3cc(-c4ccc5ccccc5c4)[nH]c(=O)c3c2C#N)cc1` [Example 3-53, 3-Cyano-N-[(7R)-1-(4-methylphenyl)ethyl]-6-(naphthalen-2-yl)-4-oxo-4,5-dihydropyrazolo[1,5-a]pyrazine-2-carboxamide], the IC50 was 1.45 nM.
Consider `CC(NC(=O)c1nn2cc(-c3ccc4ccccc4c3)[nH]c(=O)c2c1C#N)c1ccc(Cl)c(Cl)c1` (stereo not shown) [Example 3-54, 3-Cyano-N-[1-(3,4-dichlorophenyl)ethyl]-6-(2-naphthyl)-4-oxo-5H-pyrazolo[1,5-a]pyrazine-2-carboxamide], for which the concentration for half-maximal inhibition (IC50) was found to be 6.95 nM.
For the molecule `N#Cc1c(C(=O)NC2Cc3ccccc3C2)nn2cc(-c3ccc4ccccc4c3)[nH]c(=O)c12` [Example 3-55, 3-Cyano-N-(2,3-dihydro-1H-inden-2-yl)-6-(naphthalen-2-yl)-4-oxo-4,5-dihydropyrazolo[1,5-a]pyrazine-2-carboxamide], the half-maximal inhibitory concentration (IC50) came out at 7.2 nM.
Consider `COc1ccc(C(NC(=O)c2nn3cc(-c4ccc5ccccc5c4)[nH]c(=O)c3c2C#N)C2CC2)cc1` (stereo not shown) [Example 3-56, 3-Cyano-N-[cyclopropyl(4-methoxyphenyl)methyl]-6-(2-naphthyl)-4-oxo-5H-pyrazolo[1,5-a]pyrazine-2-carboxamide], for which the IC50 worked out at 3.15 nM.
Consider `COc1ccc(C(C)NC(=O)c2nn3c(C)c(-c4ccc5ccccc5c4)[nH]c(=O)c3c2C)cc1` (stereo not shown) [Example 3-57, N-[1-(4-Methoxyphenyl)ethyl]-3,7-dimethyl-6-(2-naphthyl)-4-oxo-5H-pyrazolo[1,5-a]pyrazine-2-carboxamide], for which the concentration for half-maximal inhibition (IC50) is 2.95 nM.
On to `CC(NC(=O)c1nn2cc(-c3ccc4ccccc4c3)[nH]c(=O)c2c1C#N)c1ccc(Cl)cc1Cl` (stereo not shown) [Example 3-58, 3-Cyano-N-[1-(2,4-dichlorophenyl)ethyl]-6-(2-naphthyl)-4-oxo-5H-pyrazolo[1,5-a]pyrazine-2-carboxamide], for which the IC50 amounted to 2.35 nM.
Consider `CC(C)C(NC(=O)c1nn2cc(-c3ccc4ccccc4c3)[nH]c(=O)c2c1C#N)c1ccc(F)cc1` (stereo not shown) [Example 3-59, 3-Cyano-N-[1-(4-fluorophenyl)-2-methylpropyl]-6-(2-naphthyl)-4-oxo-5H-pyrazolo[1,5-a]pyrazine-2-carboxamide], for which the IC50 came out at 1.25 nM.
To `CC(NC(=O)c1nn2cc(-c3ccc4ccccc4c3)[nH]c(=O)c2c1C#N)c1ccccc1OC(F)F` (stereo not shown) [Example 3-60, 3-Cyano-N-[1-[2-(difluoromethoxy)phenyl]ethyl]-6-(2-naphthyl)-4-oxo-5H-pyrazolo[1,5-a]pyrazine-2-carboxamide] belongs 1.85 nM.
To `CC[C@@H](NC(=O)c1nn2cc(-c3ccc4ccccc4c3)[nH]c(=O)c2c1C#N)c1ccccc1` [Example 3-61, 3-Cyano-6-(naphthalen-2-yl)-4-oxo-N-[(1R)-1-phenylpropyl]-4,5-dihydropyrazolo[1,5-a]pyrazine-2-carboxamide] belongs 2 nM; to `N#Cc1c(C(=O)NC2(c3ccc(Cl)cc3)CCC2)nn2cc(-c3ccc4ccccc4c3)[nH]c(=O)c12` [Example 3-62, N-[1-(4-Chlorophenyl)cyclobutyl]-3-cyano-6-(naphthalen-2-yl)-4-oxo-4,5-dihydropyrazolo[1,5-a]pyrazine-2-carboxamide], 4 nM; to `COc1ccc([C@H](CCO)NC(=O)c2nn3cc(-c4ccc5ccccc5c4)[nH]c(=O)c3c2C#N)cc1` [Example 3-63, 3-Cyano-N-[(1S)-3-hydroxy-1-(4-methoxyphenyl)propyl]-6-(naphthalen-2-yl)-4-oxo-4,5-dihydropyrazolo[1,5-a]pyrazine-2-carboxamide], 3.9 nM.
On to `Cc1c(C(=O)NCc2ccncc2)nn2c(C)c(-c3ccc4ccccc4c3)[nH]c(=O)c12` [Example 3-64, 3,7-Dimethyl-6-(naphthalen-2-yl)-4-oxo-N-[(pyridin-4-yl)methyl]-4,5-dihydropyrazolo[1,5-a]pyrazine-2-carboxamide], for which the half-maximal inhibitory concentration (IC50) amounted to 4.4 nM.
In the case of `Cc1c(C(=O)N[C@H](C)c2ccccc2)nn2c(C)c(-c3ccc4ccccc4c3)[nH]c(=O)c12` [Example 3-65, 3,7-Dimethyl-6-(naphthalen-2-yl)-4-oxo-N-[(1R)-1-phenylethyl]-4,5-dihydropyrazolo[1,5-a]pyrazine-2-carboxamide] it was 2 nM; in that of `Cc1c(C(=O)N[C@@H](C)c2cnccn2)nn2c(C)c(-c3ccc4ccccc4c3)[nH]c(=O)c12` [Example 3-66, 3,7-Dimethyl-6-(naphthalen-2-yl)-4-oxo-N-[(7S)-1-(pyrazin-2-yl)ethyl]-4,5-dihydropyrazolo[1,5-a]pyrazine-2-carboxamide], 7.45 nM; in that of `Cc1c(C(=O)N[C@H]2c3ccccc3C[C@H]2O)nn2c(C)c(-c3ccc4ccccc4c3)[nH]c(=O)c12` [Example 3-67, N-[(7S,2R)-2-Hydroxy-2,3-dihydro-1H-inden-1-yl]-3,7-dimethyl-6-(naphthalen-2-yl)-4-oxo-4,5-dihydropyrazolo[1,5-a]pyrazine-2-carboxamide], 2.05 nM.
For `Cc1c(C(=O)NC(CCO)c2ccccc2Cl)nn2c(C)c(-c3ccc4ccccc4c3)[nH]c(=O)c12` (stereo not shown) [Example 3-68, N-[1-(2-Chlorophenyl)-3-hydroxypropyl]-3,7-dimethyl-6-(2-naphthyl)-4-oxo-5H-pyrazolo[1,5-a]pyrazine-2-carboxamide], the IC50 turned out to be 1.85 nM.
Take `Cc1c(C(=O)NC(CO)c2ccc(Br)cc2)nn2c(C)c(-c3ccc4ccccc4c3)[nH]c(=O)c12` (stereo not shown) [Example 3-69, N-[1-(4-Bromophenyl)-2-hydroxyethyl]-3,7-dimethyl-6-(2-naphthyl)-4-oxo-5H-pyrazolo[1,5-a]pyrazine-2-carboxamide]: the IC50 is 2.5 nM.
On to `Cc1c(C(=O)NCc2ccccn2)nn2c(C)c(-c3ccc4ccccc4c3)[nH]c(=O)c12` [Example 3-70, 3,7-Dimethyl-6-(naphthalen-2-yl)-4-oxo-N-[(pyridin-2-yl)methyl]-4,5-dihydropyrazolo[1,5-a]pyrazine-2-carboxamide], for which the IC50 came out at 5.45 nM.
Take `Cc1c(C(=O)N[C@@H](CO)c2ccccc2)nn2c(C)c(-c3ccc4ccccc4c3)[nH]c(=O)c12` [Example 3-71, N-[(1R)-2-Hydroxy-1-phenylethyl]-3,7-dimethyl-6-(naphthalen-2-yl)-4-oxo-4,5-dihydropyrazolo[1,5-a]pyrazine-2-carboxamide]: the IC50 is 9.45 nM.
For the molecule `Cc1c(C(=O)NC(c2cccc(F)c2)C(F)F)nn2c(C)c(-c3ccc4ccccc4c3)[nH]c(=O)c12` (stereo not shown) [Example 3-72, N-[2,2-Difluoro-1-(3-fluorophenyl)ethyl]-3,7-dimethyl-6-(2-naphthyl)-4-oxo-5H-pyrazolo[1,5-a]pyrazine-2-carboxamide], the concentration for half-maximal inhibition (IC50) came to 2.1 nM.
Regarding `Cc1c(C(=O)NC(C)c2cccnc2)nn2c(C)c(-c3ccc4ccccc4c3)[nH]c(=O)c12` (stereo not shown) [Example 3-73, 3,7-Dimethyl-6-(2-naphthyl)-4-oxo-N-[1-(3-pyridyl)ethyl]-5H-pyrazolo[1,5-a]pyrazine-2-carboxamide], the 50% inhibitory concentration (IC50) is 2.7 nM.
As for `COc1ccc(C(C)NC(=O)c2nn3c(C)c(-c4ccc5ccccc5c4)[nH]c(=O)c3c2C)cc1F` (stereo not shown) [Example 3-74, N-[1-(3-Fluoro-4-methoxyphenyl)ethyl]-3,7-dimethyl-6-(2-naphthyl)-4-oxo-5H-pyrazolo[1,5-a]pyrazine-2-carboxamide], the half-maximal inhibitory concentration (IC50) came out at 4.8 nM.
On to `Cc1c(C(=O)NC2CCc3ccccc32)nn2c(C)c(-c3ccc4ccccc4c3)[nH]c(=O)c12` (stereo not shown) [Example 3-75, N-(2,3-Dihydro-1H-inden-1-yl)-3,7-dimethyl-6-(2-naphthyl)-4-oxo-4,5-dihydropyrazolo[1,5-a]pyrazine-2-carboxamide], for which the IC50 worked out at 6.45 nM.

One may read the IC50 as the point on the concentration scale where inhibition reaches its midpoint.
